Columns and labels:
[1] = Incorporation of BCNU into GMO gel without disruption of the three-dimensional structure; type: physicochemical; conditions: physiologic temperature
Text: The drug, such as BCNU, releases from the semisolid through diffusion, conceivably in a biphasic manner. A first phase involves, for example, a lipophilic drug contained within the lipophilic membrane diffuses therefrom into the aqueous channel 15. The second phase involves diffusion of the drug from the aqueous channel 15 into the external environment. Being lipophilic, BCNU orients itself inside the GMO gel within its proposed lipid bi-layer structure. Thus, incorporating greater than approximately 7.5% BCNU by weight into GMO causes a loss of the integrity of the three-dimensional structure whereby the gel system no longer maintains the semisolid cubic phase, and reverts to the viscous lamellar phase liquid.
It is possible to incorporate approximately 7.5% BCNU by weight into GMO gel at physiologic temperature without disruption of the normal three-dimensional structure. In addition, an average glioma tumor measures approximately 3 centimeters in diameter and equates to approximately 14 cubic centimeters in volume. As a result, approximately 11.5 to 12.0 grams of GMO gel may be implanted into the resection pocket. This equates to a possible drug dosage of approximately 900 milligrams with maximal drug. As stated earlier, the clinically recommended dose of BCNU delivered by Gliadel® Wafers to date is approximately 65 milligrams.

[2] = Miscibility of GMS in H2O; type: physicochemical
Text: It is recognized that alternative semisolids, modified formulations and methods of production exist such that the lipophilic nature of the semisolid can be altered, or in the alternative, the aqueous channels 15 contained within the semisolid can be altered. Thus, various therapeutic agents in varying concentrations may diffuse from the semisolid at differing rates, or be released therefrom over time via the aqueous channels 15 of the semisolid. Hydrophilic substances may be utilized to alter semisolid consistency or drug release by alteration of viscosity, fluidity, surface tension or the polarity of the aqueous component. […] However, because GMS is a surfactant, GMS is miscible in H2O up to approximately 20% weight/weight. For purposes of this disclosure, the term “surfactant” means surface active agent, thus being miscible in H2O in limited concentrations as well as polar substances. Upon heating and stirring, the 80% H2O/20% GMS combination produces a spreadable paste having a consistency resembling hand lotion.

Structure (SMILES) | BCNU incorporated into GMO gel without disruption of the normal three-dimensional structure [1] | miscibility in H2O [2]
O=NN(CCCl)C(=O)NCCCl [BCNU, 1,3-bis[2-chloroethyl]-1-nitrosourea] | approximately 7.5 % by weight | –
CCCCCCCCCCCCCCCCCC(=O)OCC(O)CO (centres unmarked) [GMS, glyceryl monostearate] | – | ≤ 20 % weight/weight

Source: US6488952B1, “Semisolid therapeutic delivery system and combination semisolid, multiparticulate, therapeutic delivery system” (priority 2001, dated 2002)
